Reference: paper PMC9434261, “Plant peptidoglycan precursor biosynthesis: Conservation between moss chloroplasts and Gram-negative bacteria” (Plant Physiology, 2022)
Square brackets hold non-standard residues; d marks the D form. Peptide text beside a SMILES is read from it.

What was measured:
[1] = target: T1, Streptococcus pneumoniae Pn16 MurE (Streptococcus pneumoniae, UniProt Q8CWQ5); test: coupled pyruvate kinase/lactate dehydrogenase ADP-release assay, A340; format: biochemical; conditions: 150 µM L-Lys, 375 µM UDP-MurNAc-dipeptide, ATP; 37 °C
T1 construct: recombinant, overexpressed and purified as in Blewett et al. 2004
T1 sequence (Q8CWQ5 1-481): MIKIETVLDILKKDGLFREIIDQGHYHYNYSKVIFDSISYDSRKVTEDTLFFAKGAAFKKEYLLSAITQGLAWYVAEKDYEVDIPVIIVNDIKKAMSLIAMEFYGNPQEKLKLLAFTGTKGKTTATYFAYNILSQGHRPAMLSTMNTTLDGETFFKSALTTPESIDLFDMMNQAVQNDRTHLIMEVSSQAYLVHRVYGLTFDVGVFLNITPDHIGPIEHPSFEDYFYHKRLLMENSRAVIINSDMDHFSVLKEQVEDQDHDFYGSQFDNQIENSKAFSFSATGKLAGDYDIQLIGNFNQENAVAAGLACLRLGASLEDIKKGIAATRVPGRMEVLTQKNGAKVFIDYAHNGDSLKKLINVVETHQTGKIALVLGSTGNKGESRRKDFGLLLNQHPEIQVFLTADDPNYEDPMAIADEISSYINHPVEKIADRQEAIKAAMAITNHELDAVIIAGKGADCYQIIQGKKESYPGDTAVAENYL

[2] = target: T2, PaMurF (Pseudomonas aeruginosa, UniProt Q9EY48); test: coupled ADP-release assay, tripeptide made in situ by MurE; format: biochemical; conditions: with UDP-MurNAc-D,L-DAP tripeptide (made in situ by MurE) and ATP
T2 construct: gene murF; recombinant, overexpressed and purified as in Majce et al. 2013
T2 sequence (Q9EY48 1-458): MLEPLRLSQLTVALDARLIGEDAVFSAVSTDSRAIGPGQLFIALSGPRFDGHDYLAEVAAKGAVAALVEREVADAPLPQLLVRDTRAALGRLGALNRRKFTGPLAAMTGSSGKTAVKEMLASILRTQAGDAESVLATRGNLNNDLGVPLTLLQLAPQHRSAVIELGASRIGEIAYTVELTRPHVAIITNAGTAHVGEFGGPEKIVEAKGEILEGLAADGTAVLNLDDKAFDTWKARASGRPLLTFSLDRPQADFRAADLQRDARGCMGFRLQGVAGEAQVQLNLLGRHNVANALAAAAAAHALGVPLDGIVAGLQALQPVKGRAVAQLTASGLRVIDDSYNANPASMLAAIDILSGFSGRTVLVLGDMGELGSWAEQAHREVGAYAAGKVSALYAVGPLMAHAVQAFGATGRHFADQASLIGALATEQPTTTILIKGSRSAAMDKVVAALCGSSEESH

For `CC(=O)N[C@H]1[C@@H](OP(=O)(O)OP(=O)(O)OC[C@H]2O[C@@H](n3ccc(=O)[nH]c3=O)[C@H](O)[C@@H]2O)O[C@H](CO)[C@@H](O)[C@@H]1O[C@H](C)C(=O)N[C@@H](C)C(=O)N[C@H](CCC(=O)O)C(=O)O` [UDP-MurNAc-Ala-Glu, Uridine diphospho N-acetylmuramyl-L-alanyl-D-glutamate], the “coupled pyruvate kinase/lactate dehydrogenase ADP-release assay, A340” value [1] was “lysylation of UDP-MurNAc-Ala-Glu was also assayed with the L-Lys-specific Streptococcus pneumoniae Pn16 MurE”.
`C[C@@H](N)C(=O)N[C@H](C)C(=O)O` [D-Ala–D-Ala] (H-[dA]-[dA]-OH) was tested, and the “coupled ADP-release assay, tripeptide made in situ by MurE” value [2] was “MurF ligase with D-Ala–D-Ala as the second substrate”.
